Reference: PMC10614203, “Synthesis, Structure–Activity Relationships, Radiofluorination, and Biological Evaluation of [^18F]RM365, a Novel Radioligand for Imaging the Human Cannabinoid Receptor Type 2 (CB2R) in the Brain with PET” (Journal of Medicinal Chemistry, 2023)

Target: T1, rat CB2R (Rattus norvegicus, UniProt Q9QZN9)
T1 construct: one spleen from a female SPRD rat expressing high levels of the receptor in the leukocytes; from tissue; host or cells: rat spleen (female SPRD rat; autoradiography also described with male F433 rats)
T1 sequence (Q9QZN9 1-360): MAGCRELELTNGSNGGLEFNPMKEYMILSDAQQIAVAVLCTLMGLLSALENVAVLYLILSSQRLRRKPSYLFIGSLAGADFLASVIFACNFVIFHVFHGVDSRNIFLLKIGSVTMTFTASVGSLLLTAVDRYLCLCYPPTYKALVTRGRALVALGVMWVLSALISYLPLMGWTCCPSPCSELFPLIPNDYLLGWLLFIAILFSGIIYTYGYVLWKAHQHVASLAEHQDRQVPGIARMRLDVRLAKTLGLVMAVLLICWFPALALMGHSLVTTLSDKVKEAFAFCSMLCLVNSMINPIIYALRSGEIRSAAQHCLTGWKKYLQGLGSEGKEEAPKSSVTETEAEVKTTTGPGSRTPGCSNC
Assay: In vitro autoradiography on rat spleen cryosections
Format: binding
Details: Figure S2
Source text: To complement the indirect determination of the affinity of RM365 toward the CB2R in vitro, we performed a direct binding study with the radiofluorinated ligand using preparations of CHO cells stably transfected with the cloned human receptor and one spleen from a female SPRD rat expressing high levels of the receptor in the leukocytes.[12] The results of the homologous competition study shown in Figure 6 confirm the good affinity of [^18F]RM365 toward the human CB2R with a KD value of about 2 nM. […] Furthermore, the measurement signal obtained from the incubation of [^18F]RM365 with the homogenate of rat spleen was in the range of the values obtained for the nonspecific binding of the radioligand toward the preparation of CB2R-transfected CHO cells. We conclude that RM365 binds the rat CB2R with lower affinity than the human CB2R but expect no significant interactions of the radioligand with nonspecific binding sites.[82] Because of the available rat model to assess the potential of [^18F]RM365 to cross the blood–brain barrier and to specifically label human CB2R—the hCB2R(D80N) model with high expression of human CB2R in the brain[31],[32],[66],[83]—we intended to confirm the initial findings from the rat homogenate by an autoradiographic study.
The in vitro autoradiographic experiments were performed according to a previously published protocol.[88] […]

specific interaction with rat CB2R in spleen cryosections, in words: absence of a specific interaction
SMILES: CC1(C)Cc2ccc(C#N)cc2[C@@H]1NC(=O)c1cc2cc([18F])ccc2[nH]1 [[^18F]RM365]
